Results on one compound are retold here after PMC6270661, “Antileishmanial Lead Structures from Nature: Analysis of Structure-Activity Relationships of a Compound Library Derived from Caffeic Acid Bornyl Ester” (Molecules, 2014).

Each structure is given as a SMILES string. pIC50: −log10 of the molar value.

A word on the pIC50: it is the negative decadic logarithm of the IC50, by convention in mol/L. The low end stands for a high IC50, the high end for a low IC50.

One series deals with L. major promastigotes. As to the kind of experiment: AlamarBlue assay, antileishmanial activity against L. major promastigotes. It is filed as cell-based, Leishmania major. As to conditions: Leishmania major, mean of two independent experiments. On the procedure:
(§1) Antileishmanial activities of the synthesized compounds were evaluated in L. major promastigotes as described before and in L. donovani promastigotes according to Hazra et al.. […] The antiprotozoal activities are presented in Table 1, Table 2 and Table 3 as inhibitory concentrations (IC50). […] Materials and methods for the biological assays have been described before by the authors. […] The protocol for the L. donovani quantitative colorimetric assay is outlined by Hazra et al.. The IC50 values are presented as mean values of two independent experiments against the parasite and macrophages.
(In general: Alamar Blue is a resazurin reagent that responds to reducing activity.)

The subject of series [1] is L. donovani promastigotes. As to the kind of experiment: Quantitative colorimetric assay against L. donovani promastigotes. It is filed as cell-based. As to conditions: Leishmania donovani, mean of two independent experiments. On the procedure: as §1
Series [2] in a line: AlamarBlue cytotoxicity assay on J774.1 macrophages. Type of series: cell-based, murine. To be noted: mouse, J774.1 macrophage cell line, mean of two independent experiments.
Another series has as its system L. major amastigotes. Briefly: L. major amastigote assay. Type of series: cell-based, Leishmania major.
A short description of series [3]: Cytotoxicity against bone marrow derived macrophages (BMDM). As to conditions: mouse. It is filed as cell-based, murine. An excerpt:
The amastigote is the intracellular pathogenic form of the parasite in the vertebrate host and therefore the important target. […] With regard to antileishmanial activity cinnamic acid menthyl (20) and […] (19) show good activities combined with low cytotoxicity. […] Materials and methods for the biological assays have been described before by the authors. […] The protocol for the L. donovani quantitative colorimetric assay is outlined by Hazra et al.. The IC50 values are presented as mean values of two independent experiments against the parasite and macrophages.

Series [4] relates to cysteine-cathepsin (L. major promastigote full-lysate). As to the kind of experiment: Cysteine-cathepsin fluorescence activity assay with L. major promastigote full-lysate. It is filed as biochemical, Leishmania major. To be noted: preliminary experiments, result in words.

On to `CC1(C)C2CCC1(C)[C@H](OC(=O)/C=C/c1ccc(O)c(O)c1)C2` (stereo partly drawn) [Compound 1, Caffeic Acid (−)-bornyl Ester], for which the pIC50 is 4.31 with L. major promastigotes; 4.56 in series [1]; 5.08 in series [2]; 4.32 in the series with L. major amastigotes (Leishmania major); 5.28 in series [3]. In the series on L. major amastigotes (SI = IC50 for BMDM/IC50 for L. major (amastigotes)), the “Selectivity index SI” value came out at 0.1. Further, the protease inhibitory activity result in series [4] was “showed protease inhibitory activity”.
